Data from patent publication US20220089575A1, “FARNESOID X RECEPTOR AGONISTS AND USES THEREOF” (Metacrine, Inc., priority 2017, published 2022).
pEC50: −log10 of the molar value.

Target: T1, hFXR (Homo sapiens, UniProt Q96RI1)
T1 construct: expressed in transfected cells; host or cells: CV-1 cells
T1 sequence (Q96RI1 1-486): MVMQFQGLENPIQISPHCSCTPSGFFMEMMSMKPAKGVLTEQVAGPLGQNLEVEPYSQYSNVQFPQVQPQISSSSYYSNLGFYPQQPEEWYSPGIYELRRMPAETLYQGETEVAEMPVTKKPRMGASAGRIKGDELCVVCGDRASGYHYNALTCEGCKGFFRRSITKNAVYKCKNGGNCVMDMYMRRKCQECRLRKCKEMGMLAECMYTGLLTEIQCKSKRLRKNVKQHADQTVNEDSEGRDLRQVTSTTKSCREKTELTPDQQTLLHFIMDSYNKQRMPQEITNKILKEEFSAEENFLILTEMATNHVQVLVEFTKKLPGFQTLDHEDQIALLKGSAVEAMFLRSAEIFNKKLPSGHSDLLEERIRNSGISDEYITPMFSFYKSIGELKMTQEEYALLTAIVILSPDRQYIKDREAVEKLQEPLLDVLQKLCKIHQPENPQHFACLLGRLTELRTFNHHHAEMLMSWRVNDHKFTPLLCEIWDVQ
T1 sequence (P19793 1-462 partner): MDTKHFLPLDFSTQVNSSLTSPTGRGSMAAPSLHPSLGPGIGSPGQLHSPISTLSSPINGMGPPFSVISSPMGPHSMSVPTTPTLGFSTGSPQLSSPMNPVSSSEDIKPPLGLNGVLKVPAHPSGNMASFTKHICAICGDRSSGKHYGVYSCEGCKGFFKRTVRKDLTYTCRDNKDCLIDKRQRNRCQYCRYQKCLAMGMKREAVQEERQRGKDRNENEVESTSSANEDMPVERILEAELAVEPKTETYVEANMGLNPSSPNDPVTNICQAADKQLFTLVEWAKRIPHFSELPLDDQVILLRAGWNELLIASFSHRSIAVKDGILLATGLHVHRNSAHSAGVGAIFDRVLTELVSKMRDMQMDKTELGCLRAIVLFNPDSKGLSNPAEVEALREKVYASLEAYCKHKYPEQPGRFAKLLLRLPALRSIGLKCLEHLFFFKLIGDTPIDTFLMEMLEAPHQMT
Assay: In Vitro FXR Assay (TK): TK-ECRE-luc reporter in transfected CV-1 cells
Format: cell-based
Details: 18 hrs, luminescence, maximum efficacy of <25% of the Fexarmine control classified as '+'
Outline: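 CV-1, transient co-transfection: hFXR + hRXR + TK-ECRE-luc + pCMX-YFP; charcoal-stripped serum. 18 h post-transfection, DMSO serial dilutions of cpd added; 18 h incubation; lysis, luminescence.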

SMILES | pEC50
CN(C)c1ccc([C@H]2CC[C@H](CN(c3cccc(-c4cnn(C5CC5)c4)c3)C(=O)[C@H]3CC[C@H](OC(=O)N4CC(O)C4)CC3)CC2)cn1 [Compound 7.13, trans-4-((3-(1-Cyclopropyl-1H-pyrazol-4-yl)phenyl)((trans-4-(6-(dimethylamino)pyridin-3-yl)cyclohexyl)methyl)carbamoyl) cyclohexyl 3-hydroxyazetidine-1-carboxylate] | ≥ 6.60
COc1ccc([C@H]2CC[C@H](CN(c3cccc(-c4cnn(C(C)C)c4)c3)C(=O)[C@H]3CC[C@H](OC(=O)NCCO)CC3)CC2)nc1C [Compound 6.15, trans-4-((3-(1-Isopropyl-1H-pyrazol-4-yl)phenyl)((trans-4-(5-methoxy-6-methylpyridin-2-yl)cyclohexyl)methyl)carbamoyl)cyclohexyl (2-hydroxyethyl)carbamate] | ≥ 6.60
COc1ccc([C@H]2CC[C@H](CN(c3cc(-c4cnn(C5CC5)c4)ccn3)C(=O)[C@H]3CC[C@H](CC(=O)O)CC3)CC2)nc1C [Compound 17.23, 2-(trans-4-((4-(1-Cyclopropyl-1H-pyrazol-4-yl)pyridin-2-yl)((trans-4-(5-methoxy-6-methylpyridin-2-yl)cyclohexyl)methyl)carbamoyl)cyclohexyl)acetic acid] | 6.00 to 6.60
COc1ccc([C@H]2CC[C@H](CN(c3cccc(-c4cnn(C5CC5)c4)c3)C(=O)[C@H]3CC[C@H](OC(=O)N(C)C)CC3)CC2)cc1C [Compound 5.22, trans-4-((3-(1-Cyclopropyl-1H-pyrazol-4-yl)phenyl)((trans-4-(4-methoxy-3-methylphenyl)cyclohexyl)methyl)carbamoyl)cyclohexyl dimethylcarbamate] | ≥ 6.60
CNC(=O)O[C@H]1CC[C@H](C(=O)N(C[C@H]2CC[C@H](c3ccc(OC)c(C)c3)CC2)c2cccc(-c3ccc(C4CC4)nc3)c2)CC1 [Compound 5.37, trans-4-((3-(6-Cyclopropylpyridin-3-yl)phenyl)((trans-4-(4-methoxy-3-methylphenyl)cyclohexyl)methyl)carbamoyl)cyclohexyl methylcarbamate] | ≥ 6.60
CNC(=O)O[C@H]1CC[C@H](C(=O)N(C[C@H]2CC[C@H](c3ccc(OC)c(C)n3)CC2)c2cccc(-c3cnc(C(C)C)s3)c2)CC1 [Compound 5.08, trans-4-((3-(2-Isopropylthiazol-5-yl)phenyl)((trans-4-(5-methoxy-6-methylpyridin-2-yl)cyclohexyl)methyl)carbamoyl)cyclohexyl methylcarbamate] | ≥ 6.60
COc1ccc([C@H]2CC[C@H](CN(c3cccc(-c4cnn(C5CC5)c4)c3)C(=O)[C@H]3CC[C@H](NC(=O)C4CCC4)CC3)CC2)cc1C [Compound 30.01, trans-4-(Cyclobutanecarboxamido)-N-(3-(1-cyclopropyl-1H-pyrazol-4-yl)phenyl)-N-((trans-4-(4-methoxy-3-methylphenyl)cyclohexyl)methyl) cyclohexanecarboxamide] | ≥ 6.60
COc1ccc([C@H]2CC[C@H](CN(c3cc(-c4coc(C5CC5)n4)ccn3)C(=O)[C@H]3CC[C@H](OC(=O)N4CCNCC4)CC3)CC2)nc1C [Compound 6.78, trans-4-(4-(2-Cyclopropyloxazol-4-yl)pyridine-2-yl)((trans-4-(5-methoxy-6-methylpyridin-2-yl)cyclohexyl)methyl) carbamoyl)cyclohexylpiperazine-1-carboxylate] | 6.00 to 6.60
COc1ccc([C@H]2CC[C@H](CN(c3cc(-c4coc(C5CC5)n4)ccn3)C(=O)[C@H]3CC[C@H](OC(=O)NCCO)CC3)CC2)cc1C#N [Compound 6.54, trans-4-(((trans-4-(3-Cyano-4-methoxyphenyl)cyclohexyl)methyl)(4-(2-cyclopropyloxazol-4-yl)pyridine-2-yl)carbamoyl)cyclohexyl (2-hydroxyethyl)carbamate] | ≥ 6.60
CNC(=O)O[C@H]1CC[C@H](C(=O)N(C[C@H]2CC[C@H](c3ccc(N(C)C)nc3)CC2)c2cccc(-c3cnc(C4CC4)s3)c2)CC1 [Compound 1, trans-4-((3-(2-Cyclopropylthiazol-5-yl)phenyl)((trans-4-(6-(dimethylamino)pyridin-3-yl)cyclohexyl)methyl)carbamoyl)cyclohexyl methylcarbamate] | ≥ 6.60
COc1ccc([C@H]2CC[C@H](CN(c3cc(-c4coc(C(C)C)n4)ccn3)C(=O)[C@H]3CC[C@H](OC(=O)N4CCOCC4)CC3)CC2)nc1C [Compound 6, trans-4-((4-(2-Isopropyloxazol-4-yl)pyridine-2-yl)((trans-4-(5-methoxy-6-methylpyridin-2-yl)cyclohexyl)methyl)carbamoyl)cyclohexyl morpholine-4-carboxylate] | ≥ 6.60
COc1ncc(-c2cccc(N(C[C@H]3CC[C@H](c4ccc(OC)c(C)c4)CC3)C(=O)[C@H]3CC[C@H](CNC(=O)OC(C)(C)C)CC3)c2)s1 [Compound 25.02, tert-Butyl ((trans-4-(((trans-4-(4-methoxy-3-methylphenyl)cyclohexyl)methyl)(3-(2-methoxythiazol-5-yl)phenyl)carbamoyl)cyclohexyl)methyl)carbamate] | 6.00 to 6.60
COc1ccc([C@H]2CC[C@H](CN(c3cc(-c4cnn(C(C)C)c4)ccn3)C(=O)[C@H]3CC[C@H](OC(=O)NC4CC4)CC3)CC2)nc1C#N [Compound 6.33, trans-4-(((trans-4-(6-Cyano-5-methoxypyridin-2-yl)cyclohexyl)methyl) (4-(1-isopropyl-1H-pyrazol-4-yl)pyridin-2-yl)carbamoyl)cyclohexyl cyclopropylcarbamate] | ≥ 6.60
COCC1CN(C(=O)O[C@H]2CC[C@H](C(=O)N(C[C@H]3CC[C@H](c4ccc(OC)c(C)n4)CC3)c3cc(-c4coc(C5CC5)n4)ccn3)CC2)C1 [Compound 7.77, trans-4-((4-(2-Cyclopropyloxazol-4-yl)pyridin-2-yl)((trans-4-(5-methoxy-6-methylpyridin-2-yl)cyclohexyl)methyl)carbamoyl)cyclohexyl 3-(methoxymethyl)azetidine-1-carboxylate] | ≥ 6.60
COc1ccc([C@H]2CC[C@H](CN(c3cccc(-c4cnn(C(C)C)c4)c3)C(=O)[C@H]3CC[C@H](OC(=O)N4CC(S(C)(=O)=O)C4)CC3)CC2)nc1C [Compound 6.42, trans-4-((3-(1-Isopropyl-1H-pyrazol-4-yl)phenyl)((trans-4-(5-methoxy-6-methylpyridin-2-yl)cyclohexyl)methyl)carbamoyl)cyclohexyl 3-(methylsulfonyl)azetidine-1-carboxylate] | ≥ 6.60
COc1ccc([C@H]2CC[C@H](CN(c3cccc(-c4coc(C5CC5)n4)c3)C(=O)[C@H]3CC[C@H](C(=O)OC)CC3)CC2)nc1C#N [Compound 18.24, trans-Methyl 4-(((trans-4-(6-cyano-5-methoxypyridin-2-yl)cyclohexyl)methyl)(3-(2-cyclopropyloxazol-4-yl)phenyl)carbamoyl) cyclohexanecarboxylate] | ≥ 6.60
COc1ccc([C@H]2CC[C@H](CN(c3cccc(-c4cnc(C5CC5)s4)c3)C(=O)[C@H]3CC[C@H](NC(=O)C4CN(C)C4)CC3)CC2)cc1C [Compound 27.05, N-(trans-4-((3-(2-Cyclopropylthiazol-5-yl)phenyl)((trans-4-(4-methoxy-3-methylphenyl)cyclohexyl)methyl)carbamoyl)cyclohexyl)-1-methylazetidine-3-carboxamide] | ≤ 6.00
COc1ccc([C@H]2CC[C@H](CN(c3cc(-c4coc(C5CC5)n4)ccn3)C(=O)[C@H]3CC[C@H](OC(=O)NC[C@H](C)O)CC3)CC2)nc1C [Compound 6.96, trans-4-((4-(2-Cyclopropyloxazol-4-yl)pyridin-2-yl)((trans-4-(5-methoxy-6-methylpyridin-2-yl)cyclohexyl)methyl)carbamoyl)cyclohexyl ((S)-2-hydroxypropyl)carbamate] | ≥ 6.60
COc1ccc([C@H]2CC[C@H](CN(c3cc(-c4coc(C5CC5)n4)ccn3)C(=O)[C@H]3CC[C@H](OC(=O)NCCCO)CC3)CC2)nc1C [Compound 6.62] | ≥ 6.60
COc1ncc(-c2cccc(N(C[C@H]3CC[C@H](c4ccc(OC)c(C)c4)CC3)C(=O)[C@H]3CC[C@H](CNC(C)=O)CC3)c2)s1 [Compound 25.06, trans-4-(Acetamidomethyl)-N-((trans-4-(4-methoxy-3-methylphenyl)cyclohexyl)methyl)-N-(3-(2-methoxythiazol-5-yl)phenyl)cyclohexanecarboxamide] | ≥ 6.60
